Literature values in patent publication US7678393B1, “Mixture composition and method useful for topical and internal application” (DB Laboratories LLC, priority 2006, dated 2010).

Tests used:
F0F1-ATPase/ATP synthase = conditions: micromolar concentrations
cyclooxygenase-2 (COX-2) = conditions: LPS stimulation
iNOS = conditions: LPS stimulation
Interlukin-2 (IL-2) = Interlukin-2 (IL-2) (Homo sapiens, UniProt P60568); conditions: by direct binding of IL-2
Interlukin-2 (IL-2), sequence (P60568 21-153, species assumed): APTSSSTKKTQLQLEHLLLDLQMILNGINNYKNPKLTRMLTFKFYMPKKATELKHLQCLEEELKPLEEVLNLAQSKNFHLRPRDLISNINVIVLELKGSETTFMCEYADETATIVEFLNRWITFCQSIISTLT

| Molecule | inhibition of F0F1-ATPase/ATP synthase (F0F1-ATPase/ATP synthase) | COX-2 activation by LPS (cyclooxygenase-2 (COX-2)) | iNOS activation by LPS (iNOS) | further results |
| --- | --- | --- | --- | --- |
| O=c1c(O)c(-c2ccc(O)cc2)oc2cc(O)cc(O)c12 [kaempferol] | showed inhibition at micromolar concentrations | inhibited | inhibited | – |
| O=C(O[C@@H]1Cc2c(O)cc(O)cc2O[C@@H]1c1cc(O)c(O)c(O)c1)c1cc(O)c(O)c(O)c1 [(−)epigallocatechin-3-gallate] | showed inhibition at micromolar concentrations | inhibited | inhibited | – |
| O=c1cc(-c2ccc(O)cc2)oc2cc(O)cc(O)c12 [apigenin] | – | inhibited | inhibited | – |
| O=C(OC[C@H]1O[C@@H](OC(=O)c2cc(O)c(O)c(OC(=O)c3cc(O)c(O)c(O)c3)c2)[C@H](OC(=O)c2cc(O)c(O)c(OC(=O)c3cc(O)c(O)c(O)c3)c2)[C@@H](OC(=O)c2cc(O)c(O)c(OC(=O)c3cc(O)c(O)c(O)c3)c2)[C@@H]1OC(=O)c1cc(O)c(O)c(OC(=O)c2cc(O)c(O)c(O)c2)c1)c1cc(O)c(O)c(OC(=O)c2cc(O)c(O)c(O)c2)c1 [tannic acid] | showed inhibition at micromolar concentrations | – | – | – |
| Oc1ccc(/C=C/c2cc(O)cc(O)c2)cc1 [resveratol] | showed inhibition at micromolar concentrations | – | – | – |
| Lipoteichoic acid [LTA] | – | – | – | bound in plasma lipoproteins, efficiency (plasma lipoproteins; plasma): > 95%; distribution in HDL (plasma lipoproteins; plasma lipoproteins): 68%±10%; distribution in LDL (plasma lipoproteins; plasma lipoproteins): 28%±8%; distribution in VLDL (plasma lipoproteins; plasma lipoproteins): 4%±5%; Interlukin-2 function (Interlukin-2 (IL-2)): inhibits |
